Test [1] has as its system bromodomain. The experiment in a line: at least one of the bromodomain cell assays of Example 57. As to conditions: at least one of the bromodomain cell assays described in Example 57; read-out: IC50 in at least one of the bromodomain cell assays. Format: cell-based.
Test [2] has as its system MV-4-11 cells. As to the kind of experiment: Oncology cell growth assay MV-4-11 (CellTiter Glo). As to conditions: Homo sapiens, MV4-11, 72 h; MV-4-11, 3d growth; read-out: Cell activity (IC50 μM) MV-4-11 3d-Growth. It is filed as cell-based. An outline of the steps:
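MV-4-11 AML cells (MLL-AF4), 3000 per well, exposed to 8-point 1:3 compound titration from 10 μM top concentration (0.2% DMSO) for 72 h. Viability by CellTiter Glo luminescence, normalized to DMSO controls; pIC50 from four-parameter curve fit.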
(In general: ATP-based viability assays read luminescence as a measure of living cells.)

For test [3], the target named is BRD4-BD12 (1-477) (Homo sapiens (Human), UniProt O60885). The experiment in a line: Alphascreen binding assay BRD4-BD12. Particulars: BRD4(1 2) H4; read-out: Biochemical activity (IC50 μM) BRD4(1 2) H4. An outline of the steps: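 First, compound was preincubated 1 h at room temperature with the His-tagged BRD4 protein (BD1 44-164 or tandem BD12 1-477) and acetylated H4 peptide. Next, donor and acceptor beads were added at 7.5 μg/ml final. After 30 min, AlphaScreen emission was recorded.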
(In Alpha technology, singlet oxygen from a donor bead excites a nearby acceptor bead.)

Usually IC50 stands for the concentration that gives 50% inhibition.

Take `Cc1nnn(C)c1-c1cnc2c(-c3ccc(S(N)(=O)=O)cc3)cn(CC3(F)CCCCC3)c2c1` [P-0479, 4-[6-(3,5-dimethyltriazol-4-yl)-1-[(1-fluorocyclohexyl)methyl]pyrrolo[3,2-b]pyridin-3-yl]benzenesulfonamide]: the IC50 is less than 10000 nM in test [1], less than 1 µM in test [2] and less than 1 µM in test [3].

`Cn1cc(-c2cnc3c(-c4ccc(C(=O)O)cc4)cn(CC4CCC(F)(F)CC4)c3c2)ccc1=O` [P-0480, 4-[1-[(4,4-difluorocyclohexyl)methyl]-6-(1-methyl-6-oxo-3-pyridyl)pyrrolo[3,2-b]pyridin-3-yl]benzoic acid]: the IC50 was less than 10000 nM in test [1], 1 to 10 µM in test [2] and less than 1 µM in test [3].

For `Cc1cc(-c2cnc3c(-c4cnn(CC(F)(F)F)c4)cn(CC4CCC(F)(F)CC4)c3c2)c[nH]c1=O` [P-0481, 5-[1-[(4,4-difluorocyclohexyl)methyl]-3-[1-(2,2,2-trifluoroethyl)pyrazol-4-yl]pyrrolo[3,2-b]pyridin-6-yl]-3-methyl-1H-pyridin-2-one], the results for the half-inhibitory concentration (IC50) in test [1], in test [2] and in test [3] were less than 10000 nM, less than 1 µM and less than 1 µM, respectively.

Take `Cc1noc(C)c1-c1cnc2c(-c3cnn(CC(=O)O)c3)cn(CC3CCC(F)(F)CC3)c2c1` [P-0482, 3-[4-[1-[(4,4-difluorocyclohexyl)methyl]-6-(3,5-dimethylisoxazol-4-yl)pyrrolo[3,2-b]pyridin-3-yl]pyrazol-1-yl]acetic acid]: the IC50 in test [1] is less than 10000 nM; in test [2], 10 to 200 µM; in test [3], less than 1 µM.

As to `Cc1cc(-c2cn(CC3CCC(F)(F)CC3)c3cc(-c4c(C)noc4C)cnc23)ccc1C(=O)O` [P-0483, 4-[1-[(4,4-difluorocyclohexyl)methyl]-6-(3,5-dimethylisoxazol-4-yl)pyrrolo[3,2-b]pyridin-3-yl]-2-methyl-benzoic acid], the IC50 was less than 10000 nM in test [1], less than 1 µM in test [2] and less than 1 µM in test [3].

With `Cc1noc(C)c1-c1cnc2c(-c3csc(C(=O)O)c3)cn(CC3CCC(F)(F)CC3)c2c1` [P-0484, 4-[1-[(4,4-difluorocyclohexyl)methyl]-6-(3,5-dimethylisoxazol-4-yl)pyrrolo[3,2-b]pyridin-3-yl]thiophene-2-carboxylic acid], the half-maximal inhibitory concentration (IC50) is less than 10000 nM in test [1], less than 1 µM in test [2] and less than 1 µM in test [3].

Regarding `Cc1noc(C)c1-c1cnc2c(-c3ccc(C(=O)O)s3)cn(CC3CCC(F)(F)CC3)c2c1` [P-0485, 5-[1-[(4,4-difluorocyclohexyl)methyl]-6-(3,5-dimethylisoxazol-4-yl)pyrrolo[3,2-b]pyridin-3-yl]thiophene-2-carboxylic acid], the IC50 in test [1] was less than 10000 nM; in test [2], less than 1 µM; in test [3], less than 1 µM.

On to `Cc1noc(C)c1-c1cnc2c(-c3cc(C(=O)O)cs3)cn(CC3CCC(F)(F)CC3)c2c1` [P-0486, 5-[1-[(4,4-difluorocyclohexyl)methyl]-6-(3,5-dimethylisoxazol-4-yl)pyrrolo[3,2-b]pyridin-3-yl]thiophene-3-carboxylic acid], for which the 50% inhibitory concentration (IC50) in test [1] was less than 10000 nM; in test [2], less than 1 µM; in test [3] it was less than 1 µM.

Consider `Cc1noc(C)c1-c1cnc2c(-c3ccc(C(=O)O)c(O)c3)cn(CC3CCC(F)(F)CC3)c2c1` [P-0487, 4-[1-[(4,4-difluorocyclohexyl)methyl]-6-(3,5-dimethylisoxazol-4-yl)pyrrolo[3,2-b]pyridin-3-yl]-2-hydroxy-benzoic acid], for which the IC50 in test [1] was less than 10000 nM; in test [2] it was less than 1 µM; in test [3], less than 1 µM.

With `Cc1noc(C)c1-c1cnc2c(-c3cccc(O)c3)cn(CC3(F)CCCCC3)c2c1` [P-0488, 3-[6-(3,5-dimethylisoxazol-4-yl)-1-[(1-fluorocyclohexyl)methyl]pyrrolo[3,2-b]pyridin-3-yl]phenol], the values for the half-inhibitory concentration (IC50) in test [1], in test [2] and in test [3] were less than 10000 nM, less than 1 µM and less than 1 µM, respectively.

Turning to `CNS(=O)(=O)c1cccc(-c2cn(CC3(F)CCCCC3)c3cc(-c4c(C)noc4C)cnc23)c1` [P-0489, 3-[6-(3,5-dimethylisoxazol-4-yl)-1-[(1-fluorocyclohexyl)methyl]pyrrolo[3,2-b]pyridin-3-yl]-N-methyl-benzenesulfonamide], the IC50 in test [1] is less than 10000 nM; in test [2], less than 1 µM; in test [3] it was less than 1 µM.

As for `Cc1noc(C)c1-c1cnc2c(-c3cccc(S(=O)(=O)NC4CC4)c3)cn(CC3(F)CCCCC3)c2c1` [P-0490, N-cyclopropyl-3-[6-(3,5-dimethylisoxazol-4-yl)-1-[(1-fluorocyclohexyl)methyl]pyrrolo[3,2-b]pyridin-3-yl]benzenesulfonamide], the half-inhibitory concentration (IC50) in test [1] was less than 10000 nM; in test [2], less than 1 µM; in test [3], less than 1 µM.

On to `Cc1noc(C)c1-c1cnc2c(-c3cccc(S(=O)(=O)NCCO)c3)cn(CC3(F)CCCCC3)c2c1` [P-0491, 3-[6-(3,5-dimethylisoxazol-4-yl)-1-[(1-fluorocyclohexyl)methyl]pyrrolo[3,2-b]pyridin-3-yl]-N-(2-hydroxyethyl)benzenesulfonamide], for which the IC50 was less than 10000 nM in test [1], less than 1 µM in test [2] and less than 1 µM in test [3].

As for `Cc1noc(C)c1-c1cnc2c(-c3cccc(NS(C)(=O)=O)c3)cn(CC3(F)CCCCC3)c2c1` [P-0492, N-[3-0[6-(3,5-dimethylisoxazol-4-yl)-1-[(1-fluorocyclohexyl)methyl]pyrrolo[3,2-b]pyridin-3-yl]phenyl]methanesulfonamide], the IC50 in test [1] is less than 10000 nM; in test [2], less than 1 µM; in test [3], less than 1 µM.

Regarding `COC(=O)Nc1ccc(-c2cn(CC3(F)CCCCC3)c3cc(-c4c(C)noc4C)cnc23)cc1` [P-0493, methyl N-[4-[6-(3,5-dimethylisoxazol-4-yl)-1-[(1-fluorocyclohexyl)methyl]pyrrolo[3,2-b]pyridin-3-yl]phenyl]carbamate], the half-maximal inhibitory concentration (IC50) in test [1] was less than 10000 nM; in test [2] it was less than 1 µM; in test [3] it was less than 1 µM.

Take `Cc1noc(C)c1-c1cnc2c(-c3ccc(S(=O)(=O)NC4CC4)cc3)cn(CC3(F)CCCCC3)c2c1` [P-0494, N-cyclopropyl-4-[6-(3,5-dimethylisoxazol-4-yl)-1-[(1-fluorocyclohexyl)methyl]pyrrolo[3,2-b]pyridin-3-yl]benzenesulfonamide]: the IC50 in test [1] is less than 10000 nM; in test [2] it was less than 1 µM; in test [3], less than 1 µM.

As for `Cc1noc(C)c1-c1cnc2c(-c3ccc(NS(C)(=O)=O)cc3)cn(CC3(F)CCCCC3)c2c1` [P-0495, N-[4-[6-(3,5-dimethylisoxazol-4-yl)-1-[(1-fluorocyclohexyl)methyl]pyrrolo[3,2-b]pyridin-3-yl]phenyl]methanesulfonamide], the results for the IC50 in test [1], in test [2] and in test [3] were less than 10000 nM, less than 1 µM and less than 1 µM, respectively.

Regarding `CC(=O)Nc1ccc(-c2cn(CC3(F)CCCCC3)c3cc(-c4c(C)noc4C)cnc23)cc1` [P-0496, N-[4-[6-(3,5-dimethylisoxazol-4-yl)-1-[(1-fluorocyclohexyl)methyl]pyrrolo[3,2-b]pyridin-3-yl]phenyl]acetamide], the IC50 in test [1] was less than 10000 nM; in test [2], less than 1 µM; in test [3], less than 1 µM.

In the case of `CONC(=O)c1ccc(-c2cn(CC3(F)CCCCC3)c3cc(-c4c(C)noc4C)cnc23)cc1` [P-0497, 4-[6-(3,5-dimethylisoxazol-4-yl)-1-[(1-fluorocyclohexyl)methyl]pyrrolo[3,2-b]pyridin-3-yl]-N-methoxy-benzamide], the IC50 in test [1] is less than 10000 nM; in test [2], less than 1 µM; in test [3], less than 1 µM.

Take `Cc1noc(C)c1-c1cnc2c(-c3ccc4[nH]c(=O)[nH]c4c3)cn(CC3(F)CCCCC3)c2c1` [P-0498, 5-[6-(3,5-dimethylisoxazol-4-yl)-1-[(1-fluorocyclohexyl)methyl]pyrrolo[3,2-b]pyridin-3-yl]-1,3-dihydrobenzimidazol-2-one]: the IC50 was less than 10000 nM in test [1], less than 1 µM in test [2] and less than 1 µM in test [3].

For the molecule `Cc1noc(C)c1-c1cnc2c(-c3ccc4[nH]ncc4c3)cn(CC3(F)CCCCC3)c2c1` [P-0499, 4-[1-[(1-fluorocyclohexyl)methyl]-3-(1H-indazol-5-yl)pyrrolo[3,2-b]pyridin-6-yl]-3,5-dimethyl-isoxazole], the results for the concentration for half-maximal inhibition (IC50) in test [1], in test [2] and in test [3] were less than 10000 nM, less than 1 µM and less than 1 µM, respectively.

Regarding `Cc1noc(C)c1-c1cnc2c(-c3ccc(O)c(F)c3)cn(CC3(F)CCCCC3)c2c1` [P-0500, 4-[6-(3,5-dimethylisoxazol-4-yl)-1-[(1-fluorocyclohexyl)methyl]pyrrolo[3,2-b]pyridin-3-yl]-2-fluoro-phenol], the figures for the IC50 in test [1], in test [2] and in test [3] were less than 10000 nM, less than 1 µM and less than 1 µM, respectively.

As for `Cc1noc(C)c1-c1cnc2c(-c3ccccc3C(=O)O)cn(CC3(F)CCCCC3)c2c1` [P-0501, 2-[6-(3,5-dimethylisoxazol-4-yl)-1-[(1-fluorocyclohexyl)methyl]pyrrolo[3,2-b]pyridin-3-yl]benzoic acid], the values for the half-maximal inhibitory concentration (IC50) in test [1], in test [2] and in test [3] were less than 10000 nM, less than 1 µM and less than 1 µM, respectively.

For `Cc1noc(C)c1-c1cnc2c(-c3ccc(C(=O)O)c(O)c3)cn(CC3(F)CCCCC3)c2c1` [P-0502, 4-[6-(3,5-dimethylisoxazol-4-yl)-1-[(1-fluorocyclohexyl)methyl]pyrrolo[3,2-b]pyridin-3-yl]-2-hydroxy-benzoic acid], the IC50 is less than 10000 nM in test [1], less than 1 µM in test [2] and less than 1 µM in test [3].

For the origin of these results see patent publication US10519177B2, “Heterocyclic compounds and uses thereof” (Plexxikon Inc., priority 2013, dated 2019).
